Source: PMC8701324, “Structural Insight into the Mechanism of PALB2 Interaction with MRG15” (Genes, 2021)
Where no end group is shown, it is not given here. The star is where a group is joined. 6xHis = N-terminal hexahistidine tag, N[C@@H](Cc1c[nH]cn1)C(=O)N[C@@H](Cc1c[nH]cn1)C(=O)N[C@@H](Cc1c[nH]cn1)C(=O)N[C@@H](Cc1c[nH]cn1)C(=O)N[C@@H](Cc1c[nH]cn1)C(=O)N[C@@H](Cc1c[nH]cn1)C(=O)*

Key:
MRG15^155−323 = assay: Ni-NTA pull-down of MRG15 by 6xHis-tagged PALB2 peptides; format: binding; settings: preliminary qualitative experiment; Ni-NTA agarose, SDS-PAGE
Method: Ni-NTA beads (200 µL of 50% slurry) were equilibrated with Buffer B (25 mM HEPES pH 7.5, 10% glycerol, 2 mM CHAPS and 300 mM NaCl). 1 mL of PALB2 peptide at concentration 0.1 mg·mL^−1 was bound to Ni-NTA beads, and excess peptides were washed off with Buffer B (1 mL). A total of 1 mL of 0.1 mg·mL^−1 MRG15^155−323 was added to the beads and incubated for 30 min. Beads were washed 3 times with Buffer B with 20 mM imidazole. Protein complexes were eluted with Buffer B with 250 mM imidazole. MRG15^155−323 alone, mixed with Ni-NTA beads without any peptide bound, was used as control to eliminate non-specific binding. Samples were analyzed by SDS-PAGE.
Proteins interact with the MRG domain through a conserved FxLP motif. All known structures of MRG complexes reveal significant contributions to the binding of extended regions up- and downstream of the FxLP motif. Flanking regions have low sequence and structural conservation, making it challenging to predict which regions of PALB2 around the FQLP sequence motif (amino acids 612–615) are involved in the interaction. […] The binding affinity of this peptide to MRG15 was measured using the polarization anisotropy method with fluorescein-labeled PALB2^597−630 peptide (FAM-PALB2, Genscript Biotech, Piscataway, NJ, USA). […]

[1] = target: T1, MRG15^155−323 (MRG domain) (Homo sapiens, UniProt Q9UBU8); assay: Fluorescence anisotropy binding of FAM-PALB2 peptide
T1 construct: The MRG15 MRG domain, encompassing amino acids 155–323, was cloned into the pET28b^+-based pSMT3 vector; 6xHis-SUMO (N, cleaved yes); made in house; host or cells: E. coli BL21*
T1 sequence (Q9UBU8 194-362): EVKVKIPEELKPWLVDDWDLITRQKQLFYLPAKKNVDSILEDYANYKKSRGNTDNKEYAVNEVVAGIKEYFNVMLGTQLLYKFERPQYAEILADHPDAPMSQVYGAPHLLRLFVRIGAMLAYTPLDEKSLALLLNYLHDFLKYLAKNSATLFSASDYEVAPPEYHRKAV
Method: Fluorescence anisotropy binding and competition assays were performed using black 384-well plates (Corning Inc., Corning, NY, USA) and a Synergy Neo2 plate reader (BioTek, Winooski, VT, USA). Binding assays were conducted by serially diluting the MRG15 fragment from 10 µM to 0.6 nM. A 40 µL solution of 20 µM MRG was serially diluted in 20 µL of 25 mM HEPES pH8.0, 1 mM TCEP, 10% DMSO, and 200 mM NaCl. A total of 20 µL of a 20 nM FAM-PALB2^597−630 solution was then added to each well for a final reaction volume of 40 µL and a final PALB2 concentration of 10 nM. The plate was shaken for 2 min and incubated for 15 min. Fluorescence anisotropy was measured with 485/20 nm excitation and 528/20 nm emission using Gen5.0 (BioTek) software. Kd was calculated with GraphPad Prism software by fitting the data with a non-linear regression analysis using a standard four-parameter logistic equation to identify Kd. […] R^2 is determined by the Prism software by computing the sum of the squares of the distances of the points from the best-fit curve determined by a nonlinear regression model.
Proteins interact with the MRG domain through a conserved FxLP motif. […] The binding affinity of this peptide to MRG15 was measured using the polarization anisotropy method with fluorescein-labeled PALB2^597−630 peptide (FAM-PALB2, Genscript Biotech, Piscataway, NJ, USA). […]

MRG15 (MRG domain) = target: T2, MRG15 (MRG domain) (Homo sapiens, UniProt Q9UBU8); assay: Fluorescence anisotropy competition assay: displacement of WT FAM-PALB2; format: binding; settings: competition with WT FAM-PALB2, relative to WT
T2 construct: The MRG15 MRG domain, encompassing amino acids 155–323, was cloned into the pET28b^+-based pSMT3 vector; 6xHis-SUMO (N, cleaved yes); made in house; host or cells: E. coli BL21*
T2 sequence (Q9UBU8 194-362): as above
Method: For competition assays, mutant PALB2^597−630 peptides (Genscript Biotech, Piscataway, NJ, USA) were dissolved in DMSO and serially diluted from 10 µM to 0.6 nM in 20 µL of 25 mM HEPES pH 8.0, 1 mM TCEP, 10% DMSO, and 200 mM NaCl. A total of 40 nM MRG15 was mixed with 10 nM PALB2-FAM and incubated for 15 min at room temperature (RT). 20 µL of the MRG15 with FAM-PALB2 was then added to each well, resulting in a final concentration of […]. The total reaction volume was 40 µL. The plate was then shaken for 2 min and incubated for 15 min before the fluorescence anisotropy was measured as above. The inhibition constant Ki was calculated similarly to Kd (above).
Mutations of several residues in the MRG-binding region of PALB2 were found in breast cancer patients, including Asp616His, Pro615Ser and Pro621Thr mutations (Figure 5A,B). We analyzed the effect of these mutations on PALB2 interaction with MRG by a competition assay (Figure 5C,D). An MRG complex with 10 nM WT PALB2 peptide was formed, and the comparative affinity of mutants (Ki) was assayed by the dissociation rate of FAM-PALB2 from MRG15 upon titration by a mutant peptide. In addition, the contribution of core hydrophobic amino acids was assayed by alanine substitution. None of the peptides with a core hydrophobic amino acid substitution were able to compete with wtPALB2 binding. […] Substitution of Asp616 with histidine reduced the affinity by a factor of 2. […] Substitution of this proline in the middle of an α-helical turn may increase flexibility and result in a tighter binding of αH2 to the hydrophobic pocket of MRG.

Substance: 597 630: PALB2 fragment encompassing amino acids 597–630 with the N-terminal 6xHis tag; crystallized with MRG15 (PDB ID 7S4A) (6xHis-MLSLKQLLSFLSITDFQLPDEDFGPLKLEKVKSC)
- complex formation with MRG15 in pull-down (MRG15^155−323): sufficient for the formation of a stable complex
- binding affinity to MRG domain [1]: nanomolar affinity

Substance: MLSLKQLLSFLSITDFQLPDEDFGTLKLEKVKSC [P621T]
- effect on binding affinity (MRG15 (MRG domain)): increased the binding affinity

Substance: MLSLKQLLSFLSITDFQLPHEDFGPLKLEKVKSC [D616H]
- factor by which affinity is reduced vs WT (MRG15 (MRG domain); 'by a factor of'): 2

Substance: MLSLKQLLSFLSITDFQLSDEDFGPLKLEKVKSC [P615S]
- reduction in binding affinity vs WT (MRG15 (MRG domain)): 5 fold
